In patent publication US20140010939A1, “Sweetness Enhancers, Sweetener Compositions, Methods of Making the Same and Consumables Containing the Same” (Nutrinova Nutrition Specialties & Food Ingredients GmbH, priority 2011, published 2014):

Columns and labels:
[1] = test system: control cell line without sweet receptor (HEKα15#17); experiment: Control cell line without sweet receptor in the same calcium cell based assay
Description: For measurement of human T1R2/T1R3 taste receptor dependent activity a control cell line without sweet receptor based on HEK 293 and a cell line expressing the sweet receptor hT1R2/hT1R3 based on HEK 293, respectively, are seeded into assay plates and labelled with the calcium sensitive fluorescence dye Fluo4-AM in a culture medium. The potential modulators, e.g. the test compound, are added to the control cell line and to the cell line expressing the sweet receptor hT1R2/hT1R3, respectively.
A stable cell line based on HEK293 was termed HEKα15#17 served as control for functional Ga-protein and a stable cell line HEKGα15#17R2R3b#8 C6 served as cell line expressing the sweet receptor hT1R2/hT1R3 based on HEKGα15#17.
The cells were cultured in DMEM/HG and 10% FCS Gold, 4 mM L-Glutamin, 1,3 mg/ml Geneticin (HEKGα15#17) or the same medium additionally containing 6 μg/ml Blasticidin (HEKGα15#17R2R3b#8 C6). The medium for the assay was DMEM/HG (high glucose, 4.5 g/l glucose, Life Technologies) and 10% FCS Gold, 4 mM L-Glutamin (HEKGα15#17) or DMEM/LG (low glucose, 1 g/l glucose; Life Technologies) and 10% FCS Gold (HEKGα15#17R2R3b#8C6), respectively.
In order to evaluate the sweet receptor modulating activity of the compound of formula (Ia), compound of formula (Ia) was added to the cultures in a concentration of 25 μM in a volume of 50 μl. Controls were KH-buffer (Krebs HEPES-buffer: 118 mM NaCl, 4.7 mM KCl, 1.2 mM MgSO4, 1.2 mM KH2PO4, 4.2 mM NaHCO3, 1.3 mM CaCl2, 10 mM Hepes, pH 7.4) either without or with sweetness enhancer.
Further controls for function of G-protein and receptor were isoproterenol (1 μM, Sigma Aldrich), ionomycin (1 μM, Calbiochem) and ATP (1 μM, Applichem).
For measurement of human T1R2/T1R3 taste receptor dependent activity, on day 1 of the test procedure the HEKα15#17 cells (control cell line without sweet receptor) and the HEKGα15#17R2R3b#8 C6 cells (cell line expressing the sweet receptor hT1R2/hT1R3), respectively, were transferred to low-glucose medium.
On day 2 the cells were seeded into assay plates at a density of 25,000 cells/well. Assay plates for fluorescence measurement (black clear bottom 96-cavity plates, Greiner Bio-One) were coated with poly-D-lysine. For direct comparison both cell lines (control cell line without sweet receptor and cell line expressing the sweet receptor hT1R2/hT1R3) were seeded into different cavities of the same assay plate. The plate was placed into the incubator for 48 hours at 37° C., 5% CO2, 100% relative humidity.
On day 4 the calcium assay was performed. For this assay, the cells were marked with Fluo4-AM in medium and KH-buffer. To each cavity 100 μl KH-buffer/250 μM sulfinpyrazone/4 μM Fluo4-AM were added gently to 100 μl medium (final concentration of Fluo4-AM=2 μM, stock solution of Fluo4-AM 1 mM in DMSO, excitation at 485 nm, emission at 520 nm, Fisher Scientific, 58239 Schwerte, Germany).
The plate was placed into the incubator for 1 hour. In the mean time the test substances (“ligands”) were prepared in a separate plate (5 times concentrated, 150 μl/cavity, and then automatically 50 μl/cavity were transferred into the screening cell plate by pipetting robot (FLEX-station, Molecular Devices, Sunnyvale, Calif.).
The culture medium was carefully removed and 200 μl KH-buffer/250 μM sulfinpyrazone per cavity was added slowly. Cells were left in the FLEX-station for 20 minutes for adaptation, followed by measurement at 37° C.

[2] = Taste and spit assay phase II - assessment of fructose enhancing features; format: in vivo; details: 20 μM with fructose (4%) in 0.5% ethanol versus fructose (4%) only, 5 individuals, 10 ml
Description: The taste of a sample of compound of formula (Ia) with regard to sweetness and fructose enhancing features was assessed by using a panel of trained sensory evaluators experienced in the sweet taste estimation procedure. 5 individuals were asked to taste the quality of single samples of 10 ml volume. Panelists were asked to take a sample of the liquid to be assessed (20 μM test substance compound of formula (Ia) in 0.5% ethanol) into the mouth and after some time allowed for taste perception to spit the sample out completely. Subsequently, the panelists were asked to rinse their mouth well with water or black tea to reduce any potential carry over effects. The tasting of a sample could be repeated if required. In the next step the panelists were asked to answer questions in a pairwise comparison test to determine the enhancement of sweet taste of the test substance with fructose relative to fructose only. Again, 5 individuals were given samples of 10 ml volume. This time two samples were prepared for direct comparison regarding sweetness. One sample contained fructose (4%) in solvent (0.5% ethanol) and the other sample additionally contained 20 μM of the test substance compound of formula (Ia). Designation of the samples with A and B was randomized and decoded after the taste procedure. […]

[3] = Stability test at 30° C. at three pH-values (HPLC); format: physicochemical; details: for Stability: 30° C., 8 weeks, 0.2 mM, HPLC
Description: The stability of the compound of formula (Ia) was tested at 30° C. at three different pH-values.
The test ran over 8 weeks with the compound of formula (Ia) placed in temperature controlled ovens. Samples were taken according to the following scheme: Days 0, 3, 6, 10, 14, 21, and 28 followed by weeks 6 and 8. All samples were analyzed by HPLC. Reference samples for days 3, 6, 10, 14, 21, and 28 plus weeks 6 and 8 were kept at −20° C. and analyzed together with the samples at 30° C.
Each individual sample of the compound of formula (Ia) contained 18 μg in 200 μl buffer (0.2 mM). All samples were prepared in 1.5 ml HPLC vials at the same day. Samples for day 0 were immediately analyzed and all other samples placed in ovens. Reference samples were immediately frozen at −20° C.
One reference sample per pH-value was used. Samples from the oven were taken and reference samples were added after thawing. The set of samples at 30° with reference sample was grouped into the HPLC autosampler to minimize the time gap between HPLC-analysis within each set of samples. All samples were analyzed by double injections.
Samples were analyzed by the method shown below. The target peak was manually integrated and mean values of double injections were used to prepare graphs for assessment of the stability (see FIGS. 4 to 6).

CC(=O)N(O)CCCCCNC(=O)C(O)(CC(=O)O)CC(=O)NCCCN(O)C(C)=O (centres unmarked) [compound of formula (Ia)]
Fluo4-AM fluorescence increase (activation of control cell line) ([1]; 25 μM, in the presence of fructose (20 mM), FIG. 1 ninth bar): does not activate the control cell line
Fluo4-AM fluorescence increase (activation of control cell line) ([1]; 25 μM, without fructose, FIG. 1 eighth bar): does neither activate the control cell line
Fluo4-AM fluorescence increase (activation of control cell line) ([1]; secondary screening, in the presence of fructose, FIG. 1 seventh bar): does not activate the control cell line
Sweetness in pairwise comparison with fructose only [2]: All 5 panelists identified the sample containing 4% fructose with the compound of formula (Ia) as sweeter than the sample containing 4% fructose only
Stability ([3]; pH=3.0 Na-Citrate buffer, FIG. 4): stable during 8 weeks at 30 °C at pH=3.0
Stability ([3]; pH=4.5 Na-Citrate buffer, FIG. 5): stable during 8 weeks at 30 °C at pH=4.5
Stability ([3]; pH=6.5 phosphate buffer, FIG. 6): stable during 8 weeks at 30 °C at pH=6.5
Temperature and pH stability (overall) ([3]; summary of the test at 30° C., pH 3.0, 4.5, 6.5): excellent temperature and pH stability
